Data as given in PubChem BioAssay AID2060607 (Molecular Pharmacology Branch, DTP, NCI, 2025).
“And” between values parts separate entries of the source, which are not always exact repeats. Equal values may be shown once.

Tested on: 876862-298-R-J1-PDC complex spheroids, viability % test/control
Assay: Anticancer human tumor 876862-298-R-J1-PDC patient-derived endometrial carcinoma cell line growth inhibition [CLK]
Settings: for viability, T/C: stronger effect = lower value
In short: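 Patient-derived tumor cells grown as complex spheroids with HUVEC endothelial cells and mesenchymal stem cells, treated with drug combinations. Concentrations descend in half-log steps from near clinical Cmax, or from 10 microM if Cmax unknown.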

[1] = curve of first compound, second compound 0.0316 µM
[2] = curve of first compound, second compound 0.1 µM
[3] = curve of first compound, second compound 0.316 µM
[4] = curve of first compound, second compound 1 µM
[5] = curve of first compound, second compound 3.16 µM
[6] = curve of first compound, second compound 10 µM
[7] = second compound 0.0316 µM, first compound 0.0316 µM
[8] = second compound 0.0316 µM, first compound 0.1 µM
[9] = second compound 0.0316 µM, first compound 0.316 µM
[10] = second compound 0.0316 µM, first compound 1 µM
[11] = second compound 0.0316 µM, first compound 3.16 µM
[12] = second compound 0.0316 µM, first compound 10 µM
[13] = second compound 0.1 µM, first compound 0.0316 µM
[14] = second compound 0.1 µM, first compound 0.1 µM
[15] = second compound 0.1 µM, first compound 0.316 µM
[16] = second compound 0.1 µM, first compound 1 µM
[17] = second compound 0.1 µM, first compound 3.16 µM
[18] = second compound 0.1 µM, first compound 10 µM
[19] = second compound 0.316 µM, first compound 0.0316 µM
[20] = second compound 0.316 µM, first compound 0.1 µM
[21] = second compound 0.316 µM, first compound 0.316 µM
[22] = second compound 0.316 µM, first compound 1 µM
[23] = second compound 0.316 µM, first compound 3.16 µM
[24] = second compound 0.316 µM, first compound 10 µM
[25] = second compound 1 µM, first compound 0.0316 µM
[26] = second compound 1 µM, first compound 0.1 µM
[27] = second compound 1 µM, first compound 0.316 µM
[28] = second compound 1 µM, first compound 1 µM
[29] = second compound 1 µM, first compound 3.16 µM
[30] = second compound 1 µM, first compound 10 µM
[31] = second compound 3.16 µM, first compound 0.0316 µM
[32] = second compound 3.16 µM, first compound 0.1 µM
[33] = second compound 3.16 µM, first compound 0.316 µM
[34] = second compound 3.16 µM, first compound 1 µM
[35] = second compound 3.16 µM, first compound 3.16 µM
[36] = second compound 3.16 µM, first compound 10 µM
[37] = second compound 10 µM, first compound 0.0316 µM
[38] = second compound 10 µM, first compound 0.1 µM
[39] = second compound 10 µM, first compound 0.316 µM
[40] = second compound 10 µM, first compound 1 µM
[41] = second compound 10 µM, first compound 3.16 µM
[42] = second compound 10 µM, first compound 10 µM
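Also: spheroids exposed to drugs for 7 days before readout.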
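For viability, T/C in this document: 100% = DMSO vehicle control wells.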

CC(C)CC(NC(=O)C(Cc1ccccc1)NC(=O)c1cnccn1)B(O)O (centres undefined) + CN1CCN(c2cc(C(=O)Nc3cc4cc(-c5cnn(C)c5)ccc4cn3)ccn2)CC1
IC50 [1]: 1.77 nM
IC50 [2]: 0.97 nM
IC50 [3]: < 0.949 nM
IC50 [4]: < 0.949 nM
IC50 [5]: < 0.949 nM
IC50 [6]: < 0.949 nM
viability, T/C (second compound 0.0316 µM, first compound 0.000949 µM): 92.9%
viability, T/C (second compound 0.0316 µM, first compound 0.003 µM): 13.8%
viability, T/C (second compound 0.0316 µM, first compound 0.00949 µM): 1.49%
viability, T/C (second compound 0.0316 µM, first compound 0.03 µM): 0.54%
viability, T/C (second compound 0.0316 µM, first compound 0.0949 µM): 0.87%
viability, T/C (second compound 0.0316 µM, first compound 0.3 µM): 0.26%
viability, T/C (second compound 0.1 µM, first compound 0.000949 µM): 50.9%
viability, T/C (second compound 0.1 µM, first compound 0.003 µM): 9.76%
viability, T/C (second compound 0.1 µM, first compound 0.00949 µM): 0.72%
viability, T/C (second compound 0.1 µM, first compound 0.03 µM): 0.44%
viability, T/C (second compound 0.1 µM, first compound 0.0949 µM): 0.43%
viability, T/C (second compound 0.1 µM, first compound 0.3 µM): 0.26%
viability, T/C (second compound 0.316 µM, first compound 0.000949 µM): 2.77%
viability, T/C (second compound 0.316 µM, first compound 0.003 µM): 0.46%
viability, T/C (second compound 0.316 µM, first compound 0.00949 µM): 1.45%
viability, T/C (second compound 0.316 µM, first compound 0.03 µM): 0.39%
viability, T/C (second compound 0.316 µM, first compound 0.0949 µM): 0.5%
viability, T/C (second compound 0.316 µM, first compound 0.3 µM): 0.26%
viability, T/C (second compound 1 µM, first compound 0.000949 µM): 0.6%
viability, T/C (second compound 1 µM, first compound 0.003 µM): 0.27%
viability, T/C (second compound 1 µM, first compound 0.00949 µM): 0.45%
viability, T/C (second compound 1 µM, first compound 0.03 µM): 0.53%
viability, T/C (second compound 1 µM, first compound 0.0949 µM): 0.45%
viability, T/C (second compound 1 µM, first compound 0.3 µM): 0.57%
viability, T/C (second compound 3.16 µM, first compound 0.000949 µM): 1.3%
viability, T/C (second compound 3.16 µM, first compound 0.003 µM): 0.5%
viability, T/C (second compound 3.16 µM, first compound 0.00949 µM): 0.68%
viability, T/C (second compound 3.16 µM, first compound 0.03 µM): 0.95%
viability, T/C (second compound 3.16 µM, first compound 0.0949 µM): 0.69%
viability, T/C (second compound 3.16 µM, first compound 0.3 µM): 0.43%
viability, T/C (second compound 10 µM, first compound 0.000949 µM): 0.67%
viability, T/C (second compound 10 µM, first compound 0.003 µM): 0.32%
viability, T/C (second compound 10 µM, first compound 0.00949 µM): 1.9%
viability, T/C (second compound 10 µM, first compound 0.03 µM): 0.44%
viability, T/C (second compound 10 µM, first compound 0.0949 µM): 0.42%
viability, T/C (second compound 10 µM, first compound 0.3 µM): 0.27%

C=C(F)C(=O)N1CCN(c2nc(OCC3CCCN3C)nc3c2CCN(c2cccc4cccc(Cl)c24)C3)CC1CC#N (centres undefined) + CNC(=O)c1ccc(Nc2nc(OC3CCCC3)c3c(-c4ccc5nc(C)oc5c4)c[nH]c3n2)c(OC)c1
IC50 [1]: 4840 nM
IC50 [2]: < 31.6 nM
IC50 [3]: < 31.6 nM
IC50 [4]: < 31.6 nM
IC50 [5]: < 31.6 nM
IC50 [6]: < 31.6 nM
viability, T/C [7]: 61.2%
viability, T/C [8]: 84.6%
viability, T/C [9]: 74.5%
viability, T/C [10]: 84.6%
viability, T/C [11]: 87.3%
viability, T/C [12]: 1.29%
viability, T/C [13]: 47.9%
viability, T/C [14]: 49.9%
viability, T/C [15]: 47.5%
viability, T/C [16]: 48.3%
viability, T/C [17]: 38.8%
viability, T/C [18]: 2.57%
viability, T/C [19]: 42.1%
viability, T/C [20]: 39.7%
viability, T/C [21]: 43.1%
viability, T/C [22]: 39.1%
viability, T/C [23]: 31.5%
viability, T/C [24]: 1.59%
viability, T/C [25]: 33.1%
viability, T/C [26]: 33.1%
viability, T/C [27]: 32.6%
viability, T/C [28]: 27.1%
viability, T/C [29]: 27.6%
viability, T/C [30]: 0.79%
viability, T/C [31]: 22.3%
viability, T/C [32]: 24.6%
viability, T/C [33]: 22.1%
viability, T/C [34]: 21.8%
viability, T/C [35]: 21.8%
viability, T/C [36]: 0.16%
viability, T/C [37]: 23.3%
viability, T/C [38]: 22.4%
viability, T/C [39]: 19.5%
viability, T/C [40]: 21.6%
viability, T/C [41]: 18.6%
viability, T/C [42]: 0.21%

COC1C=CCC(C)C(C)S(=O)(=O)NC(=O)c2ccc3c(c2)N(CC2CCC21)CC1(CCCc2cc(Cl)ccc21)CO3 (centres undefined) + CN1CCN(c2cc(C(=O)Nc3cc4cc(-c5cnn(C)c5)ccc4cn3)ccn2)CC1
IC50 [1]: 7390 nM
IC50 [2]: 212 nM
IC50 [3]: < 31.6 nM
IC50 [4]: < 31.6 nM
IC50 [5]: < 31.6 nM
IC50 [6]: < 31.6 nM
viability, T/C [7]: 93.9%
viability, T/C [8]: 96.6%
viability, T/C [9]: 97.6%
viability, T/C [10]: 96.3%
viability, T/C [11]: 96.7%
viability, T/C [12]: 33.5%
viability, T/C [13]: 56.9%
viability, T/C [14]: 51.1%
viability, T/C [15]: 47.6%
viability, T/C [16]: 39%
viability, T/C [17]: 38.6%
viability, T/C [18]: 18.8%
viability, T/C [19]: 4.28%
viability, T/C [20]: 3.17%
viability, T/C [21]: 2.26%
viability, T/C [22]: 1.91%
viability, T/C [23]: 1.34%
viability, T/C [24]: 0.56%
viability, T/C [25]: 0.93%
viability, T/C [26]: 0.64%
viability, T/C [27]: 25.5%
viability, T/C [28]: 0.78%
viability, T/C [29]: 25.2%
viability, T/C [30]: 2.2%
viability, T/C [31]: 1.34%
viability, T/C [32]: 1.14%
viability, T/C [33]: 1.59%
viability, T/C [34]: 1.26%
viability, T/C [35]: 1.14%
viability, T/C [36]: 0.26%
viability, T/C [37]: 1.69%
viability, T/C [38]: 1.52%
viability, T/C [39]: 2.33%
viability, T/C [40]: 26.3%
viability, T/C [41]: 1.84%
viability, T/C [42]: 1.78%

CCCS(=O)(=O)Nc1ccc(F)c(C(=O)c2c[nH]c3ncc(-c4ccc(Cl)cc4)cc23)c1F
viability, T/C (compound 0.0316 µM): 111% and 94.9%
viability, T/C (compound 0.1 µM): 107% and 108%
viability, T/C (compound 0.316 µM): 108% and 97.3%
viability, T/C (compound 1 µM): 100% and 110%
viability, T/C (compound 3.16 µM): 91.8% and 83.4%
viability, T/C (compound 10 µM): 43.5% and 39.1%
IC50 (curve of compound): 8630 nM and 7530 nM

Nc1ccn(C2OC(CO)C(O)C2(F)F)c(=O)n1 (centres undefined) + CN1CCN(c2cc(C(=O)Nc3cc4cc(-c5cnn(C)c5)ccc4cn3)ccn2)CC1
IC50 [1]: < 31.6 nM
IC50 [2]: < 31.6 nM
IC50 [3]: < 31.6 nM
IC50 [4]: < 31.6 nM
IC50 [5]: < 31.6 nM
IC50 [6]: < 31.6 nM
viability, T/C [7]: 22.6%
viability, T/C [8]: 8.64%
viability, T/C [9]: 6.4%
viability, T/C [10]: 7.52%
viability, T/C [11]: 6.95%
viability, T/C [12]: 5.95%
viability, T/C [13]: 13.8%
viability, T/C [14]: 8.73%
viability, T/C [15]: 7.61%
viability, T/C [16]: 7.32%
viability, T/C [17]: 7.36%
viability, T/C [18]: 6.15%
viability, T/C [19]: 1.98%
viability, T/C [20]: 2.23%
viability, T/C [21]: 2.31%
viability, T/C [22]: 2.07%
viability, T/C [23]: 1.76%
viability, T/C [24]: 1.74%
viability, T/C [25]: 0.86%
viability, T/C [26]: 0.6%
viability, T/C [27]: 1.16%
viability, T/C [28]: 0.96%
viability, T/C [29]: 0.79%
viability, T/C [30]: 0.99%
viability, T/C [31]: 0.84%
viability, T/C [32]: 0.93%
viability, T/C [33]: 0.9%
viability, T/C [34]: 0.86%
viability, T/C [35]: 1.01%
viability, T/C [36]: 0.93%
viability, T/C [37]: 0.55%
viability, T/C [38]: 0.43%
viability, T/C [39]: 0.48%
viability, T/C [40]: 0.64%
viability, T/C [41]: 0.74%
viability, T/C [42]: 0.72%

Nc1ccn(C2OC(CO)C(O)C2(F)F)c(=O)n1 (centres undefined)
viability, T/C (compound 0.0316 µM): 12.8% and 8.55%
viability, T/C (compound 0.1 µM): 7.47% and 6.97%
viability, T/C (compound 0.316 µM): 7.3% and 6.5%
viability, T/C (compound 1 µM): 6.05% and 6.36%
viability, T/C (compound 3.16 µM): 6.22% and 8.41%
viability, T/C (compound 10 µM): 7.04% and 6.47%
IC50 (curve of compound): < 31.6 nM

COc1ccc([C@@H](O)c2cc(-c3ncnc4cc(N5CCOCC5)ccc34)c(F)cc2Cl)nn1
viability, T/C (compound 0.0316 µM): 109% and 103%
viability, T/C (compound 0.1 µM): 88.9% and 106%
viability, T/C (compound 0.316 µM): 108% and 101%
viability, T/C (compound 1 µM): 98.5% and 89.7%
viability, T/C (compound 3.16 µM): 73.1% and 69%
viability, T/C (compound 10 µM): 49.9% and 28.5%
IC50 (curve of compound): 9980 nM and 5390 nM
